Results reported in article PMC6731281, “Production of zosteric acid and other sulfated phenolic biochemicals in microbial cell factories” (Nature Communications, 2019).

What was measured:
Type in all cases: cell-based
[1] = biological target: T1, TALRsp (Cereibacter sphaeroides, UniProt Q3IWB0); experiment: HPLC of p-coumaric and zosteric acid in culture of E. coli co-expressing TAL and SULT1A1; conditions: with or without 2 mM tyrosine; M9, 0.2% glucose, 24 h
T1 construct: gene hutH; co-expressed with rat SULT1A1 in E. coli BL21(DE3); whole growing cells
T1 sequence (Q3IWB0 1-523): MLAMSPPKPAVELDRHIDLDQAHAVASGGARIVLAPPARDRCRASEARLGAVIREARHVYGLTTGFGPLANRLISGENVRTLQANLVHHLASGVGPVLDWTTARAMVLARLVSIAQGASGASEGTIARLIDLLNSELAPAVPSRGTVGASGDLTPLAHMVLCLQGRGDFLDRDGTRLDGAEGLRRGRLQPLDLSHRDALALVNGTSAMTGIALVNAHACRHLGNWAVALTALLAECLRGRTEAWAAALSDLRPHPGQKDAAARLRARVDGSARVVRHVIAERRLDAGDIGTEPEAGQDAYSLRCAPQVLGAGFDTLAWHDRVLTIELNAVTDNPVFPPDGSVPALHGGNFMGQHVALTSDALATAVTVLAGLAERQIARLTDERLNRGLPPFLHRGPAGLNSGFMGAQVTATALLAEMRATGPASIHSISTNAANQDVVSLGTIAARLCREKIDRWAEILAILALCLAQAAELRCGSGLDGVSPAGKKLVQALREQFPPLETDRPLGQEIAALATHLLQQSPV

[2] = biological target: T2, TALFjo (Flavobacterium johnsoniae, UniProt A5FKY3); experiment: as above; conditions: with or without 2 mM tyrosine; M9, 0.2% glucose, 24 h
T2 construct: gene Fjoh_1109; co-expressed with rat SULT1A1 in E. coli BL21(DE3) (also in S. cerevisiae); whole growing cells
T2 sequence (A5FKY3 1-506): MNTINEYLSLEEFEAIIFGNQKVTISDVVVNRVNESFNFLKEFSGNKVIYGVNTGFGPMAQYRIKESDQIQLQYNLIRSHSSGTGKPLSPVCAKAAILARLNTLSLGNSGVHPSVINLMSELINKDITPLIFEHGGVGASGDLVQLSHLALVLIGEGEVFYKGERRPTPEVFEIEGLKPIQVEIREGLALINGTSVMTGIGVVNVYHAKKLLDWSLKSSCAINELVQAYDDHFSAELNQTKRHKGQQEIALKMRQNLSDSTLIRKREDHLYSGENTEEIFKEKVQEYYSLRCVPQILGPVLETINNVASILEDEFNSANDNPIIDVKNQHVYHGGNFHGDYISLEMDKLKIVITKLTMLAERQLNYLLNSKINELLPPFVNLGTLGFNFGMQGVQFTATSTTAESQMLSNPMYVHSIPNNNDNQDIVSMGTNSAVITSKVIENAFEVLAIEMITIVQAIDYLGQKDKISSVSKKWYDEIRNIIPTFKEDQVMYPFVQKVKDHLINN

[3] = biological target: T3, TALRca (Rhodobacter capsulatus, UniProt D5AR26); experiment: as above; conditions: with or without 2 mM tyrosine; M9, 0.2% glucose, 24 h
T3 construct: gene hutH; co-expressed with rat SULT1A1 in E. coli BL21(DE3); whole growing cells
T3 sequence (D5AR26 1-531): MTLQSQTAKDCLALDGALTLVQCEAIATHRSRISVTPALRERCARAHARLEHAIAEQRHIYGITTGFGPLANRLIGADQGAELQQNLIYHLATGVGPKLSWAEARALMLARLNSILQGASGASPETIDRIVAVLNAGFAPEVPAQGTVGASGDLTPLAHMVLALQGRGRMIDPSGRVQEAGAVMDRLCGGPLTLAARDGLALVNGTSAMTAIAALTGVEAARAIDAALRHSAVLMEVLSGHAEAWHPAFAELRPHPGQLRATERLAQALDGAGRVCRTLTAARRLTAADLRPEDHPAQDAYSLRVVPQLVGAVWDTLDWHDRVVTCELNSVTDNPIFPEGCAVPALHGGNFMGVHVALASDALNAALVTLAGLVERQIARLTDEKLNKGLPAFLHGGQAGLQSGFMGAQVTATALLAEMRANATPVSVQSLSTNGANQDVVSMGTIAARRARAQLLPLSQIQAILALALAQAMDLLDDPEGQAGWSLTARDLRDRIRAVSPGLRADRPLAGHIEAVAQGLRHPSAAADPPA

[4] = biological target: T4, SULT1A1Rno (Rattus norvegicus, UniProt P17988); experiment: HPLC of supernatant of E. coli expressing the enzyme; product zosteric acid matched synthetic standard; conditions: intracellular PAPS as donor; 100 µM substrate in screen; M9, 37 °C, 24 h
T4 construct: gene Sult1a1; codon-optimized synthetic gene in pETDuet-1, expressed in E. coli KRX or BL21(DE3) (also in S. cerevisiae); whole growing cells
T4 sequence (P17988 whole entry): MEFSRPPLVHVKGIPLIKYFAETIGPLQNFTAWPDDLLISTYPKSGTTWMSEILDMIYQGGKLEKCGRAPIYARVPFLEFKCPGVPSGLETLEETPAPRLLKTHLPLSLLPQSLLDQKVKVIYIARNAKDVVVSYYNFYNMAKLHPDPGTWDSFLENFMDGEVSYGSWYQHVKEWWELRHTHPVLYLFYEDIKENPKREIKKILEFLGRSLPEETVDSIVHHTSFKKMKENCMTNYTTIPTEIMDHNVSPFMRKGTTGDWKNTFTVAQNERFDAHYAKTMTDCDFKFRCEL

Structure (SMILES) | HPLC of p-coumaric and zosteric acid in culture of E. coli co-expressing TAL and [1] | HPLC of p-coumaric and zosteric acid in culture of E. coli co-expressing TAL and [2] | HPLC of p-coumaric and zosteric acid in culture of E. coli co-expressing TAL and [3] | HPLC of supernatant of E. coli expressing the enzyme; product zosteric acid matc [4]
N[C@@H](Cc1ccc(O)cc1)C(=O)O [tyrosine] | expression of a TAL-encoding gene was required for the production of pHCA | expression of a TAL-encoding gene was required for the production of pHCA | expression of a TAL-encoding gene was required for the production of pHCA | –
O=C(O)/C=C/c1ccc(O)cc1 [p-coumaric acid] | – | – | – | SULT1A1Rno showed the greatest production of zosteric acid from p-coumaric acid
